The values that follow come from US20240067600A1, “SMALL MOLECULE INHIBITORS OF THE MITOCHONDRIAL PERMEABILITY TRANSITION PORE (mtPTP)” (UNIVERSITY OF KANSAS, priority 2014, published 2024).

What all share (format): biochemical, mice
In one assay the test system is mtPTP. In words: Calcium retention capacity (CRC) assay on isolated mitochondria. To be noted: for Calcium Retention Capacity (CRC/CRC0) at 1.56 μM: 1.56 μM compound; for Calcium Retention Capacity (CRC/CRC0 at 12.5 μM): 12.5 μM compound.
A further assay has as its system IMM potential. Description: Rhodamine 123 (Rh123) uptake counterscreen.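 Note: isolated mitochondria respiring on glutamate plus malate in sucrose MOPS-Tris buffer at pH 7.4, Rh123 added with the organelles, compounds tested across a twofold dilution series.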 In general terms: The purpose of a counterscreen is to sort out artefacts and off-target activity.
Assay [1] has as its system Mitochondrial Permeability Transition Pore. In words: Mitochondrial swelling absorbance assay.
Setting [2] is: Table 1, read-out: Rh123 uptake (EC50).
The mark [3] stands for this setting: Table 2, average of >3 experiments ± SEM.
The mark [4] stands for this setting: Table 2, average of >3 experiments ± SEM, read-out: Rh123 Assay EC50.

Like-named read-outs stand apart in the source and are kept apart here.

Protocol for IMM potential: Assay buffer: 250 mM sucrose, 10 mM MOPS-Tris, 0.01 mM EGTA-Tris, 1.0 mM phosphoric acid-Tris, pH 7.4 • Solution 1. 5.0 mM glutamate and 2.5 mM malate in Assay Buffer. • Solution 2. 1% DMSO in Solution 1. • Solution 3. 0.8 μM FCCP (the stock 40 μM in DMSO) in Solution 1. • Solution 4. 0.5 mg/mL mitochondria and 0.8 μM Rh123 in Assay Buffer.
Protocol Summary: • 1. Freshly isolate mitochondria, prepare solutions according to the recipes in the Reagent Section. • 2. Dispense 100 μL of Solution 3 to Columns 1-2 and Solution 2 Columns 11-12 (positive and negative controls, respectively) of the 96-well black assay plate (Falcon 353376). • 3. Dispense 200 μL of Solution 1 to Row A Columns 3-10. • 4. Next, dispense 100 μL of Solution 2 to Rows B-H Columns 3-10. • 5. Add 4 μL of 10 mM test compounds in DMSO to Row A Columns 3-10, perform 1:2 serial dilutions Row A to H Columns 3-10. • 6. Finally, dispense 100 μL of Solution 4 in all wells. The reaction starts. • 7. Keep the plate at room temperature for 5 minutes and then read fluorescence (excitation 485 nm, emission 538 nm) on Fluoroskan Ascent FL, Thermo Scientific.
Concentration-Response Counterscreen Assay to Identify Compounds that Prevent Mitochondrial Swelling Via Interference with the IMM Potential (SAR Assay AID No. 743361)
Assay buffer: 250 mM sucrose, 10 mM MOPS-Tris, 0.01 mM EGTA-Tris, 1.0 mM phosphoric acid-Tris, pH 7.4 • Solution 1. 5.0 glutamate and 2.5 mM malate in Assay Buffer. • Solution 2. 1% DMSO in Solution 1. • Solution 3. 0.8 μM FCCP (the stock 40 μM in DMSO) in Solution 1. • Solution 4. 0.5 mg/mL mitochondria and 0.8 μM Rh123 in Assay Buffer.
Protocol for mtPTP: Assay buffer: 250 mM sucrose, 10 mM MOPS-Tris, 0.01 mM EGTA-Tris, 1.0 mM phosphoric acid-Tris, pH 7.4. • Solution 1. 10 mM glutamate and 5 mM malate in Assay buffer. • Solution 2. 1% DMSO in Solution 2. • Solution 3. 0.5 mg/mL mitochondria and 1.0 μM Calcium Green-5N in Assay Buffer. • Solution 4. 0.25 mM CaCl2).
Protocol Summary: • 1. Freshly isolate mitochondria, prepare solutions according to the recipes in the Reagent Section. • 2. Dispense 100 μL of Solution 2 to Columns 1-2 (negative control) of the 96-well black assay plate (Falcon 353376). • 3. Dispense 200 μL of Solution 1 to Row A Columns 3-12. • 4. Next, dispense 100 μL of Solution 2 to Rows B-H Columns 3-12. • 5. Add 4 μL of 5 mM test compounds in DMSO to Row A Columns 3-12, perform 1:2 serial dilutions Row A to H Columns 3-12. • 6. Finally, dispense 100 μL of Solution 3 in all wells. • 7. Experiment starts. Read Calcium Green-5N fluorescence (excitation 485 nm, emission 538 nm) and perform a train of 4 μL Solution 4 additions with Fluoroskan Ascent FL, Thermo Scientific.

By EC50 is commonly meant the concentration that produces a half-maximal response. With `Cc1ccc(Cl)cc1NC(=O)c1cc(-c2ccc(F)c(O)c2)on1`, in the assay with mtPTP (Table 1, average ± SEM), the “Calcium Retention Capacity (CRC/CRC0) at 1.56 μM” value was found to be 15.21 ± 1.26 and the “Calcium Retention Capacity (CRC/CRC0 at 12.5 μM)” value was 19.28 ± 1.59. For the same compound, the EC50 in the assay on IMM potential (setting [2]) was > 100000 nM. Besides, the EC50 in assay [1] (Table 1, average ± SEM) was 0.134 ± 0.016 nM.

Consider `O=C(Nc1cc(Cl)cc(Cl)c1)c1cc(-c2ccc(F)c(O)c2)on1` [drawing 191], for which the “Calcium Retention Capacity (CRC/CRC0 at 12.5 μM)” value in the assay on mtPTP (Table 1, average ± SEM) came out at 11.22 ± 1.22. Moreover, the EC50 in the assay with IMM potential (setting [2]) was > 100000 nM; in assay [1] (Table 1, average ± SEM) it was 76 ± 9.2 nM.

As to `Cc1cc(Cl)cc(NC(=O)c2cc(-c3cccc(O)c3)on2)c1`, in the assay on mtPTP (Table 1, average ± SEM), the “Calcium Retention Capacity (CRC/CRC0 at 12.5 μM)” value was 9.34 ± 1.04. Further, the EC50 was > 100000 nM in the assay with IMM potential (setting [2]) and 78 ± 5 nM in assay [1] (Table 1, average ± SEM).

With `CN1CCN(Cc2ccc(NC(=O)c3ccc(Cl)c(OCc4ccccc4)c3)cc2)CC1` [Entry 5], the “Calcium Retention Capacity (CRC/CRC0 at 12.5 μM)” value with mtPTP (setting [3]) is given as 14.1 ± 1.1. The values for the concentration giving a half-maximal response (EC50) (in the assay with IMM potential (setting [4]); in assay [1] (setting [3])) were 49600 ± 4300 nM and 423 ± 28 nM, respectively.

As for `COc1ccc(Cl)cc1C(=O)Nc1cccc(CN2CCNCC2)c1`, the “Calcium Retention Capacity (CRC/CRC0 at 12.5 μM)” value in the assay with mtPTP (Table 1, average ± SEM) is 1.52 ± 0.06. For the same compound, the EC50 with IMM potential (setting [2]) was > 100000 nM; in assay [1] (Table 1, average ± SEM), 3270 ± 150 nM.

For `O=C(Nc1ccc(CN2CCCCC2)cc1)c1ccc(Cl)c(OCc2ccc(F)cc2)c1` [Entry 12], the “Calcium Retention Capacity (CRC/CRC0 at 12.5 μM)” value with mtPTP (setting [3]) was 10.1 ± 0.8. Further, the EC50 in the assay with IMM potential (setting [4]) was found to be 28600 ± 1100 nM; in assay [1] (setting [3]), 490 ± 80 nM.

Turning to `O=C(Nc1ccc(CN2CCCCC2)cc1)c1cccc(OCc2ccccc2)c1`, the “Calcium Retention Capacity (CRC/CRC0 at 12.5 μM)” value with mtPTP (Table 1, average ± SEM) is given as 3.54 ± 0.28. Moreover, the EC50 is 51200 nM in the assay with IMM potential (setting [2]) and 885 ± 116 nM in assay [1] (Table 1, average ± SEM).

On to `O=C(Nc1cc(Cl)ccc1Cl)c1cc(-c2ccc(F)c(O)c2)on1`, for which the “Calcium Retention Capacity (CRC/CRC0) at 1.56 μM” value with mtPTP (Table 1, average ± SEM) amounted to 6.50 ± 0.77. Moreover, the “Calcium Retention Capacity (CRC/CRC0 at 12.5 μM)” value with mtPTP (Table 1, average ± SEM) stood at 12.15 ± 1.36. Further, the EC50 is > 100000 nM with IMM potential (setting [2]) and 66 ± 3.2 nM in assay [1] (Table 1, average ± SEM).

Take `COc1ccc(-c2cc(C(=O)Nc3cc(Cl)ccc3C)n[nH]2)cc1O`: in the assay with mtPTP (Table 1, average ± SEM), the “Calcium Retention Capacity (CRC/CRC0) at 1.56 μM” value is recorded as 7.51 ± 0.47 (at 1.56 μM). Besides, the EC50 was > 100000 nM in the assay with IMM potential (setting [2]) and 2.4 ± 0.4 nM in assay [1] (Table 1, average ± SEM).

Turning to `O=C(Nc1ccc(CN2CCNCC2)cc1)c1ccc(Cl)c(OCc2ccccc2)c1` [Entry 7], the “Calcium Retention Capacity (CRC/CRC0 at 12.5 μM)” value with mtPTP (setting [3]) is 18.3 ± 1.3. Also, the results for the EC50 (with IMM potential (setting [4]); in assay [1] (setting [3])) were 46400 ± 3200 nM and 206 ± 21 nM, respectively.

Take `Cc1cnc(Cl)cc1NC(=O)c1cc(-c2cccc(O)c2)on1`: the “Calcium Retention Capacity (CRC/CRC0 at 12.5 μM)” value in the assay on mtPTP (Table 1, average ± SEM) is 5.51 ± 0.99. The EC50 is > 100000 nM with IMM potential (setting [2]) and 100 ± 9.6 nM in assay [1] (Table 1, unit inferred, average ± SEM).

For `O=C(Nc1cccc(Cl)c1Cl)c1cc(-c2ccc(F)c(O)c2)on1` [drawing 136], in the assay with mtPTP (Table 1, average ± SEM), the “Calcium Retention Capacity (CRC/CRC0 at 12.5 μM)” value amounted to 9.37 ± 0.65. Also, the EC50 with IMM potential (setting [2]) was > 100000 nM; in assay [1] (Table 1, average ± SEM), 55.4 ± 4.1 nM.

Regarding `O=C(Nc1ccc(CN2CCCCC2)cc1)c1cc(F)cc(OCc2ccccc2)c1` [Entry 1], the “Calcium Retention Capacity (CRC/CRC0 at 12.5 μM)” value in the assay with mtPTP (setting [3]) is 10.8 ± 0.6. Besides, the EC50 with IMM potential (setting [4]) was 58600 ± 2900 nM; in assay [1] (setting [3]), 521 ± 46 nM.

Consider `COc1ccc(Cl)cc1C(=O)Nc1ccc(CN2CCCCC2)cc1`, for which the “Calcium Retention Capacity (CRC/CRC0 at 12.5 μM)” value with mtPTP (Table 1, average ± SEM) is listed as 1.80 ± 0.00. The EC50 in the assay on IMM potential (setting [2]) is > 100000 nM; in assay [1] (Table 1, average ± SEM) it was 1540 ± 101 nM.

Take `CN(C)c1ccc(Cl)cc1NC(=O)c1cc(-c2cccc(O)c2)on1`: the “Calcium Retention Capacity (CRC/CRC0 at 12.5 μM)” value in the assay on mtPTP (Table 1, average ± SEM) stood at 2.22 ± 0.38. Besides, the EC50 in the assay on IMM potential (setting [2]) was > 100000 nM; in assay [1] (Table 1, average ± SEM), 1610 ± 866 nM.

Take `COc1ccc(Cl)cc1C(=O)Nc1ccc(CCN2CCNCC2)cc1` [drawing 154]: the “Calcium Retention Capacity (CRC/CRC0 at 12.5 μM)” value with mtPTP (Table 1, average ± SEM) stood at 1.31 ± 0.03. Also, the EC50 with IMM potential (setting [2]) was > 100000 nM; in assay [1] (Table 1, average ± SEM), 7250 ± 526 nM.

In the case of `COc1ccc(Cl)cc1C(=O)Nc1ccc(CCN2CCCCC2)cc1`, the “Calcium Retention Capacity (CRC/CRC0 at 12.5 μM)” value in the assay with mtPTP (Table 1, average ± SEM) is listed as 1.51 ± 0.01. Further, the EC50 was > 100000 nM with IMM potential (setting [2]) and 2680 ± 166 nM in assay [1] (Table 1, average ± SEM).

For the compound `O=C(Nc1ccc(CN2CCOCC2)cc1)c1ccc(Cl)c(OCc2ccccc2)c1` [Entry 4], in the assay on mtPTP (setting [3]), the “Calcium Retention Capacity (CRC/CRC0 at 12.5 μM)” value worked out at 8.81 ± 0.39. Moreover, the concentration for a half-maximal effect (EC50) is > 100000 nM with IMM potential (setting [4]) and 403 ± 31 nM in assay [1] (setting [3]).

`O=C(Nc1cccc(Cl)c1Cl)c1cc(-c2ccc(F)c(O)c2)on1` [drawing 193]: the “Calcium Retention Capacity (CRC/CRC0 at 12.5 μM)” value in the assay with mtPTP (Table 1, average ± SEM) is listed as 11.21 ± 1.38. Moreover, the EC50 in the assay with IMM potential (setting [2]) is > 100000 nM; in assay [1] (Table 1, average ± SEM), 71 ± 1.1 nM.

For `COc1ccc(-c2cc(C(=O)Nc3cccc(Cl)c3Cl)no2)cc1O`, in the assay on mtPTP (Table 1, average ± SEM), the “Calcium Retention Capacity (CRC/CRC0) at 1.56 μM” value is 5.21 ± 0.50 (at 1.56 μM). Also, the EC50 was > 100000 nM in the assay on IMM potential (setting [2]) and 108 ± 10 nM in assay [1] (Table 1, average ± SEM).

As for `Cc1cnc(Cl)cc1NC(=O)c1cc(-c2ccc(F)c(O)c2)on1`, in the assay with mtPTP (Table 1, average ± SEM), the “Calcium Retention Capacity (CRC/CRC0 at 12.5 μM)” value turned out to be 3.48 ± 0.51. Further, the EC50 was > 100000 nM in the assay with IMM potential (setting [2]) and 2190 ± 150 nM in assay [1] (Table 1, average ± SEM).

Consider `COc1ccc(Cl)cc1C(=O)Nc1ccc(CCN2CCN(C(=O)OC(C)(C)C)CC2)cc1` [drawing 174], for which the “Calcium Retention Capacity (CRC/CRC0 at 12.5 μM)” value in the assay on mtPTP (Table 1, average ± SEM) is reported as 1.90 ± 0.11.

As to `C[C@@H]1CCC[C@H](C)N1CCCC(=O)c1ccc(Br)cc1`, the “Calcium Retention Capacity (CRC/CRC0 at 12.5 μM)” value with mtPTP (Table 1, average ± SEM) is recorded as 1.01 ± 0.02. Moreover, the EC50 with IMM potential (setting [2]) is > 100000 nM; in assay [1] (Table 1, average ± SEM), 46000 ± 1360 nM.
